# “Also recorded” adds a separate entry of the source. Strand notation (5' to 3'): a small letter for the sugar, then the base; units joined by * are phosphorothioate-linked, units joined directly phosphodiester-linked; [ ] holds rarer units or linkages, { } end groups; capitals alone tell only the bases. r = 2'-OH (RNA)
# Key:
# [1] = test system: Human peripheral blood mononuclear cells (PBMCs); assay: Induced cytokine secretion by PBMCs (ELISA); assay type: cell-based; details: for cytokine secretion when complexed to the CAL2 peptide: complexed to CAL2, versus the component on its own; for cytokine secretion, component on its own: individual component, 24 hours
# Protocol: (§1) FIG. 10 is bar graph showing the induced secretion of IL-6 by PBMCs exposed to PolyIC, RNA248, DNA4, DNA10, PolyIC complexed with SEQ. ID NO. 36 (CAL2), RNA248 complexed with SEQ. ID NO. 36, DNA4 complexed with SEQ. ID NO. 36, DNA10 complexed with SEQ. ID NO. 36, DNA4 and RNA248 complexed with SEQ. ID NO. 36, Pam2CSK4-conjugated SEQ. ID NO. 36 complexed with DNA4 and SEQ. ID NO. 36 alone. Each well contained ˜300,000 fresh PBMCs in a total volume of 100 μL of RPMI medium. Solutions of SEQ. ID NO. 36, PolyIC, DNA4, DNA10, Pam2CSK4-conjugated SEQ. ID NO. 36 were all pre-mixed to concentrations of 50 ug/mL (for each peptide reagent) and then added to wells in volumes of 100 uL, such that each well contained a 200 uL volume of PBMCs and reagents. Wells were run in triplicate and the mean value is indicated.
# as §1, with “FIG. 11” for “FIG. 10”, “of IL-10” for “of IL-6”
# FIG. 12 is a bar graph showing the induced secretion of IL-12 by PBMCs exposed to PolyIC, RNA248, DNA4, DNA10, PolyIC complexed with SEQ. ID NO. 36 (CAL2), RNA248 complexed with SEQ. ID NO. 36, DNA4 complexed with SEQ. ID NO. 36, DNA10 complexed with SEQ. ID NO. 36, DNA4 and RNA248 complexed with SEQ. ID NO. 36, Pam2CSK4-conjugated SEQ. ID NO. 36 complexed with DNA4 and SEQ. ID NO. 36 alone. Each well contained ˜300,000 fresh PBMCs in a total volume of 100 μL of RPMI medium. Solutions of SEQ. ID NO. 36, PolyIC, DNA4, DNA10, Pam2CSK4-conjugated SEQ. ID NO. 36 were all pre-mixed to concentrations of 50 ug/mL (for each peptide reagent) and then added to wells in volumes of 100 uL, such that each well contained a 200 uL volume of PBMCs and reagents. Wells were run in triplicate and the mean value is indicated.
# FIG. 13 is a bar graph showing the induced secretion of IL-15 by PBMCs exposed to PolyIC, RNA248, DNA4, DNA10, PolyIC complexed with SEQ. ID NO. 36 (CAL2), RNA248 complexed with SEQ. ID NO. 36, DNA4 complexed with SEQ. ID NO. 36, DNA10 complexed with SEQ. ID NO. 36, DNA4 and RNA248 complexed with SEQ. ID NO. 36, Pam2CSK4-conjugated SEQ. ID NO. 36 complexed with DNA4 and SEQ. ID NO. 36 alone. Each well contained ˜300,000 fresh PBMCs in a total volume of 100 μL of RPMI medium. Solutions of SEQ. ID NO. 36, PolyIC, DNA4, DNA10, Pam2CSK4-conjugated SEQ. ID NO. 36 were all pre-mixed to concentrations of 50 ug/mL (for each peptide reagent) and then added to wells in volumes of 100 uL, such that each well contained a 200 uL volume of PBMCs and reagents. Wells were run in triplicate and the mean value is indicated.
# as §1, with “FIG. 14” for “FIG. 10”, “is a” for “is”, “of IFN-α” for “of IL-6”, “reagents. […]” for “reagents. Wells were run in triplicate and the mean value is indicated.”
# DNA4/RNA248 = assay: MM complex stability by gel electrophoresis; assay type: physicochemical; details: for complex formation with DNA4/RNA248: disappearance of free DNA4/RNA248 at sufficient peptide concentrations
# Protocol: FIG. 9 is an image generated from a gel electrophoresis experiment (20 V/cm), whereby SEQ. ID NO. 36 (1 mg/mL) was mixed with DNA4/RNA248 (1 mg/mL) at ratios of 1:4 (Lane #2), 1:2 (Lane #3), 1:1 (Lane #4), 2:1 (Lane #5), and 4:1 (Lane #6) SEQ. ID NO. 36 to DNA4/RNA248. For reference, only DNA4/RNA248 was placed in Lane #1. The DNA4/RNA248 mixture travels in the gel away from the negative electrode (top) due its inherent negative charge.
# Given the importance of forming stable complexes of antigenic cargo with immune-stimulatory molecules, the stability of MM was characterized using gel electrophoresis. MM were formed by mixing CAL2 (SEQ. ID NO. 36) with […] at varying ratios. […] The experiment was repeated for several other peptides, including SEQ. ID NOS. 34 and 42. […] Furthermore, the intensity of each band decreased as concentration of peptide increased. The presence of the linker sequence, RRHRKRR (SEQ. ID NO. 64), was determined to be critical for stable complexation. Separately, solutions of MM were tested after sitting at room temperature for 2 weeks yielding nearly identical results.
# [2] = test system: metastatic iodine-refractory differentiated thyroid cancer (DTC); details: cited from earlier work
# [3] = test system: activated circulating CTLs; details: PD-1+ and LAG-3+ gated flow cytometry; cited from earlier work
# [4] = 25 μg/mL, 24 hours, 300,000 PBMCs per well
molecule,measurement,setting,value
"5′-TCGTCGGTTTCGGCGCGCGCCG-3′ (DNA, all phosphorothioate, methylation of C not given here; further chemistry not fully specified) [DNA4]",induced secretion of IL-12,[1]; [4],does not induce secretion
same,induced secretion of IL-15,[1]; [4],does not induce secretion
same,cytokine secretion when complexed to the CAL2 peptide,[1],marked increase
same,"cytokine secretion, component on its own",[1]; 25 μg/mL,minimal
"5′-TTCGGCGCGCGCGCGCGCGCGCCGTT-3′ (DNA, all phosphorothioate, methylation of C not given here; further chemistry not fully specified) [DNA10]",cytokine secretion when complexed to the CAL2 peptide,[1],marked increase
same,"cytokine secretion, component on its own",[1]; 25 μg/mL,minimal
5′-guuggugguugugugagcgu-3′ (rG*rU*rU*rG*rG*rU*rG*rG*rU*rU*rG*rU*rG*rU*rG*rA*rG*rC*rG*rU) [RNA248],cytokine secretion when complexed to the CAL2 peptide,[1],marked increase
same,"cytokine secretion, component on its own",[1]; 25 μg/mL,minimal; also recorded: very minimal
34 (RRHRKRRLSTCMLGTYTQDFNKFHTFPQTAIRRHRKRR; targeting calcitonin) [compound 34],complex formation with DNA4/RNA248,DNA4/RNA248,stable complexes were formed
42 (RIPVKWTAIESLFDHRRHRKRR; targeting RETM918T) [compound 42],complex formation with DNA4/RNA248,DNA4/RNA248,stable complexes were formed
COc1cc2nccc(Oc3ccc(NC(=O)NC4CC4)c(Cl)c3)c2cc1C(N)=O [lenvatinib],overall survival benefits,[2],marginal
same,progression free survival,[2],improved
CNC(=O)c1cc(Oc2ccc(NC(=O)Nc3ccc(Cl)c(C(F)(F)F)c3)cc2)ccn1 [sorafenib],overall survival benefits,[2],marginal
same,progression free survival,[2],improved
RRHRKRRLSTCMLGTYTQDFNKFHTFPQTAI (targeting calcitonin) [SEQ. ID NO. 36],"cytokine secretion, component on its own",[1]; 25 μg/mL,very minimal
same,nucleotide bands in gel,"DNA4/RNA248; SEQ. ID NO. 36 to DNA4/RNA248 2:1 (Lane #5) and 4:1 (Lane #6), 20 V/cm, FIG. 9",no nucleotide bands are seen
same,free DNA4/RNA248 in gel,"DNA4/RNA248; peptide to DNA4/RNA248 ratios exceeding 2:1, electric field of 20 V/cm",no free DNA4/RNA248 could be visualized
"PEGylated IL-10: PEGylated IL-10 given to patients (protein, UniProt P22301 19-178, looked up, PEGylated) Interleukin-10: SPGQGTQSENSCTHFPGNLPNMLRDLRDAFSRVKTFFQMKDQLDNLLLKESLLEDFKGYLGCQALSEMIQFYLEEVMPQAENQDPDIKAHVNSLGENLKTLRLRLRRCHRFLPCENKSKAVEQVKNAFNKLQEKGIYKAMSEFDIFINYIEAYMTMKIRN",numbers of activated circulating CTLs,[3],increased

# Source: patent publication US20180161433A1, “SIZE TUNABLE MICROBIAL MIMETICS FOR IMMUNOTHERAPY OF THYROID CARCINOMAS AND SOLID TUMORS” (priority 2017, published 2018)
